Test results as given in US20220175693A1, “DIETARY SUPPLEMENT COMPRISING LUTEIN FOR TELOMERE PROTECTION, AND METHOD FOR PRODUCTION THEREOF” (BIOGEN EXTRACTS PRIVATE LIMITED, priority 2019, published 2022).

System: human adult primary fibroblast cells
Experiment: Telomere length by Telomere Analysis Technology (HT Q-FISH) and telomere shortening rate
Format: cell-based
Description: A high-throughput (HT) Q-FISH technique was used. This method is based on a quantitative fluorescence in-situ hybridization method modified for cells in interphase2. In brief, telomeres are hybridized with a fluorescent Peptide Nucleic Acid probe (PNA) that recognizes three telomere repeats. The images of the nuclei and telomeres are captured by a high-content screen system. The intensity of the fluorescent signal from the telomeric PNA probes that hybridize to a given telomere is proportional to the length of that telomere. The intensities of fluorescence are translated to base pairs through a standard regression curve which is generated using control cell lines with known telomere length.
Sample Preparation and HT Q-FISH: On processing day, the samples and control cell lines frozen in liquid nitrogen are thawed at 37° C. and cell counts and cellular viability are determined. Aliquots with viability lower than 60% are considered below our QC standards and are not further analyzed. Cells are seeded in clear bottom black-walled 384-well plates at 15,000 cells per well in 5 replicates for each sample and 8 replicates for each control cell line.
Cells are fixed with methanol/acetic acid (3/1, vol/vol). Once these cells have fixed onto the plate, they are treated with pepsin to digest the cytoplasm and the nuclei are processed for in situ hybridization with the PNA probe. After several washing steps following standard DAPI incubation for DNA staining, the wells are filled up with mounting medium and the plate is stored overnight at 4° C.
HT Microscopy: Quantitative image acquisition and analysis is performed on a High Content Screening Opera System. Images are captured, using a 40×0.95 NA water immersion objective. UV and 488 nm excitation wavelengths are used to detect the DAPI and A488 signals respectively. With constant exposure settings, 15 independent images are captured at different positions for each well. Next, the nuclei images are used to define the region of interest for each cell, measuring telomere fluorescence intensity of the A488 image in all of them. The results of intensity for each foci are exported to the Columbus 2.4 software. Telomere length distribution and median telomere length are calculated with Life Length's proprietary program.
Median telomere length, 20th percentile telomere length, percentage of short telomeres and the coefficients of variation for each set of samples. The percentage of short telomeres is defined as the percentage of those below 3 Kbp (<3 Kbp). As mentioned earlier, measurements in five replicates per sample were performed.
For TAT analysis, data were grouped by condition (Ctrl, H2O2, LUT10, LUT5, LUT1, LUT10+H2O2, LUT5+H2O2, LUT1+H2O2) and time point of treatment (0, 4, and 8 weeks).
Due to the fact that DNA replication during the cell cycle causes of telomere shortening, the telomere length measurements performed were normalized by the total number of population doubling (cell replication) in each condition and week.
Telomere shortening rate was analysed, Median of telomere length (initial-final)/Population Doubling, at the defined time points and treatments, FIG. 8.
Graph of telomere length vs Population doubling at different treatments. Slope of regression line in each condition, represents the telomere shortening rate. Y=aX+b; a=slope andbb=y intercept, FIG. 9.

[1] = Lutein 1 μg/ml + 10 μM H2O2, week 4 (P4)
[2] = Lutein 1 μg/ml + 10 μM H2O2, week 8 (P8)
[3] = Lutein 1 μg/ml, standard culture, week 4 (P4)
[4] = Lutein 1 μg/ml, standard culture, week 8 (P8)
[5] = Lutein 5 μg/ml + 10 μM H2O2, week 4 (P4)
[6] = Lutein 5 μg/ml + 10 μM H2O2, week 8 (P8)
[7] = Lutein 5 μg/ml, standard culture, week 4 (P4)
[8] = Lutein 5 μg/ml, standard culture, week 8 (P8)
[9] = Lutein 10 μg/ml + 10 μM H2O2, week 4 (P4)
[10] = Lutein 10 μg/ml + 10 μM H2O2, week 8 (P8)
[11] = Lutein 10 μg/ml, standard culture, week 4 (P4)
[12] = Lutein 10 μg/ml, standard culture, week 8 (P8)

Question: With `CC1=C[C@H](O)CC(C)(C)[C@H]1/C=C/C(C)=C/C=C/C(C)=C/C=C/C=C(C)/C=C/C=C(C)/C=C/C1=C(C)C[C@@H](O)CC1(C)C` [Lutein] as the molecule, how does the “Telomere shortening rate versus control” value (Lutein 1 μg/ml (LUT1), standard conditions, 8 weeks) read?
Answer: significant increase

Question: And the “Median Telomere Length (Table 7A)” value (Lutein 1 μg/ml + 10 μM H2O2, week 4)?
Answer: 5980 bp

Question: What about the “20th Percentile Length (telomere, TAT)” value [1] of the same molecule?
Answer: 3381 base pairs

Question: What about the “Median Length (telomere, TAT)” value [1] of the same molecule?
Answer: 5997 base pairs

Question: What about the “Telomere shortening rate (Median of telomere length (initial-final)/Population Doubling)” value [1] of the same molecule?
Answer: 111 bp/PD

Question: And the “Telomeres <3 Kbp (percentage of short telomeres)” value [1]?
Answer: 16.72%

Question: And the “Median Telomere Length (Table 7A)” value (Lutein 1 μg/ml + 10 μM H2O2, week 8)?
Answer: 6045 bp

Question: What about the “20th Percentile Length (telomere, TAT)” value [2] of the same molecule?
Answer: 2848 base pairs

Question: What about the “Median Length (telomere, TAT)” value [2] of the same molecule?
Answer: 6037 base pairs

Question: And the “Telomere shortening rate (Median of telomere length (initial-final)/Population Doubling)” value [2]?
Answer: 63 bp/PD

Question: And the “Telomeres <3 Kbp (percentage of short telomeres)” value [2]?
Answer: 21.14%

Question: And the “Slope (Telomere Shortening Rate) of regression line, telomere length vs Population doubling” value (shortened to “Slope … vs Population doubling”) (Lutein 1 μg/ml + 10 μM H2O2, weeks 0-8)?
Answer: y = −66.365x + 7187.3

Question: What about the “Median Telomere Length (Table 7A)” value (Lutein 1 μg/ml, standard culture, week 4) of the same molecule?
Answer: 5984 bp

Question: And the “20th Percentile Length (telomere, TAT)” value [3]?
Answer: 3351 base pairs

Question: And the “Median Length (telomere, TAT)” value [3]?
Answer: 5977 base pairs

Question: And the “Telomere shortening rate (Median of telomere length (initial-final)/Population Doubling)” value [3]?
Answer: 100 bp/PD

Question: And the “Telomeres <3 Kbp (percentage of short telomeres)” value [3]?
Answer: 16.87%

Question: What about the “Median Telomere Length (Table 7A)” value (Lutein 1 μg/ml, standard culture, week 8) of the same molecule?
Answer: 6071 bp

Question: What about the “20th Percentile Length (telomere, TAT)” value [4] of the same molecule?
Answer: 2848 base pairs

Question: What about the “Median Length (telomere, TAT)” value [4] of the same molecule?
Answer: 6077 base pairs

Question: What about the “Telomere shortening rate (Median of telomere length (initial-final)/Population Doubling)” value [4] of the same molecule?
Answer: 53 bp/PD

Question: And the “Telomeres <3 Kbp (percentage of short telomeres)” value [4]?
Answer: 21.29%

Question: And the “Slope … vs Population doubling” value (Lutein 1 μg/ml, standard culture, weeks 0-8)?
Answer: y = −55.261x + 7163.8

Question: What about the “Median Telomere Length (Table 7A)” value (Lutein 5 μg/ml + 10 μM H2O2, week 4) of the same molecule?
Answer: 6085 bp

Question: What about the “20th Percentile Length (telomere, TAT)” value [5] of the same molecule?
Answer: 3351 base pairs

Question: What about the “Median Length (telomere, TAT)” value [5] of the same molecule?
Answer: 6077 base pairs

Question: And the “Telomere shortening rate (Median of telomere length (initial-final)/Population Doubling)” value [5]?
Answer: 93 bp/PD

Question: What about the “Telomeres <3 Kbp (percentage of short telomeres)” value [5] of the same molecule?
Answer: 16.97%

Question: And the “Median Telomere Length (Table 7A)” value (Lutein 5 μg/ml + 10 μM H2O2, week 8)?
Answer: 5980 bp

Question: And the “20th Percentile Length (telomere, TAT)” value [6]?
Answer: 2977 base pairs

Question: And the “Median Length (telomere, TAT)” value [6]?
Answer: 5977 base pairs

Question: And the “Telomere shortening rate (Median of telomere length (initial-final)/Population Doubling)” value [6]?
Answer: 59 bp/PD

Question: What about the “Telomeres <3 Kbp (percentage of short telomeres)” value [6] of the same molecule?
Answer: 20.09%

Question: What about the “Slope … vs Population doubling” value (Lutein 5 μg/ml + 10 μM H2O2, weeks 0-8) of the same molecule?
Answer: y = −61.587x + 7222

Question: What about the “Median Telomere Length (Table 7A)” value (Lutein 5 μg/ml, standard culture, week 4) of the same molecule?
Answer: 6340 bp

Question: And the “20th Percentile Length (telomere, TAT)” value [7]?
Answer: 3104 base pairs

Question: What about the “Median Length (telomere, TAT)” value [7] of the same molecule?
Answer: 6349 base pairs

Question: And the “Telomere shortening rate (Median of telomere length (initial-final)/Population Doubling)” value [7]?
Answer: 80 bp/PD

Question: And the “Telomeres <3 Kbp (percentage of short telomeres)” value [7]?
Answer: 18.98%

Question: And the “Median Telomere Length (Table 7A)” value (Lutein 5 μg/ml, standard culture, week 8)?
Answer: 6177 bp

Question: And the “20th Percentile Length (telomere, TAT)” value [8]?
Answer: 2945 base pairs

Question: What about the “Median Length (telomere, TAT)” value [8] of the same molecule?
Answer: 6037 base pairs

Question: What about the “Telomere shortening rate (Median of telomere length (initial-final)/Population Doubling)” value [8] of the same molecule?
Answer: 55 bp/PD

Question: And the “Telomeres <3 Kbp (percentage of short telomeres)” value [8]?
Answer: 20.51%

Question: And the “Slope … vs Population doubling” value (Lutein 5 μg/ml, standard culture, weeks 0-8)?
Answer: y = −56.796x + 7261.1

Question: And the “Median Telomere Length (Table 7A)” value (Lutein 10 μg/ml + 10 μM H2O2, week 4)?
Answer: 5804 bp

Question: And the “20th Percentile Length (telomere, TAT)” value [9]?
Answer: 3073 base pairs

Question: And the “Median Length (telomere, TAT)” value [9]?
Answer: 5772 base pairs

Question: And the “Telomere shortening rate (Median of telomere length (initial-final)/Population Doubling)” value [9]?
Answer: 118 bp/PD

Question: And the “Telomeres <3 Kbp (percentage of short telomeres)” value [9]?
Answer: 19.10%

Question: What about the “Median Telomere Length (Table 7A)” value (Lutein 10 μg/ml + 10 μM H2O2, week 8) of the same molecule?
Answer: 5972 bp

Question: And the “20th Percentile Length (telomere, TAT)” value [10]?
Answer: 2977 base pairs

Question: And the “Median Length (telomere, TAT)” value [10]?
Answer: 5977 base pairs

Question: What about the “Telomere shortening rate (Median of telomere length (initial-final)/Population Doubling)” value [10] of the same molecule?
Answer: 66 bp/PD

Question: And the “Telomeres <3 Kbp (percentage of short telomeres)” value [10]?
Answer: 20.09%

Question: What about the “Slope … vs Population doubling” value (Lutein 10 μg/ml + 10 μM H2O2, weeks 0-8) of the same molecule?
Answer: y = −71.479x + 7181.9

Question: And the “Median Telomere Length (Table 7A)” value (Lutein 10 μg/ml, standard culture, week 4)?
Answer: 6272 bp

Question: And the “20th Percentile Length (telomere, TAT)” value [11]?
Answer: 3198 base pairs

Question: And the “Median Length (telomere, TAT)” value [11]?
Answer: 6330 base pairs

Question: And the “Telomere shortening rate (Median of telomere length (initial-final)/Population Doubling)” value [11]?
Answer: 81 bp/PD

Question: What about the “Telomeres <3 Kbp (percentage of short telomeres)” value [11] of the same molecule?
Answer: 18.48%

Question: What about the “Median Telomere Length (Table 7A)” value (Lutein 10 μg/ml, standard culture, week 8) of the same molecule?
Answer: 6008 bp

Question: And the “20th Percentile Length (telomere, TAT)” value [12]?
Answer: 2977 base pairs

Question: What about the “Median Length (telomere, TAT)” value [12] of the same molecule?
Answer: 5997 base pairs

Question: And the “Telomere shortening rate (Median of telomere length (initial-final)/Population Doubling)” value [12]?
Answer: 56 bp/PD

Question: What about the “Telomeres <3 Kbp (percentage of short telomeres)” value [12] of the same molecule?
Answer: 20.21%

Question: What about the “Slope … vs Population doubling” value (Lutein 10 μg/ml, standard culture, weeks 0-8) of the same molecule?
Answer: y = −57.039x + 7250

Question: And the “Telomere shortening rate compared to control (H2O2)” value (Lutein 10, 5 and 1 μg/ml + 10 μM H2O2, after 8 passages)?
Answer: significant difference

Question: And the “Effect on telomere length erosion in vitro” value (oxidative stress conditions, after 8 passages)?
Answer: significant protective effect

Question: And the “Telomere analysis versus control, other differences” value (treated groups in standard conditions (LUT10, LUT5, LUT1), 8 weeks)?
Answer: No other significant differences
